Assay results: ChEMBL document CHEMBL3885881, “DrugMatrix”

Species on record: Rattus norvegicus
Assay: DrugMatrix - Regimen: Daily Repeat
Assay type: toxicity, organism-based, Sprague-Dawley
Parameters: regimen Daily Repeat, gender Male, age 6-8 weeks
Conditions: in vivo, po, route oral GAVAGE, […]; for ABSOLUTE BASOPHIL / ABSOLUTE EOSINOPHIL / ABSOLUTE LYMPHOCYTE / ABSOLUTE MONOCYTE / ABSOLUTE SEGMENTED NEUTROPHIL / BASOPHIL / EOSINOPHIL / ERYTHROCYTE COUNT / HEMATOCRIT / HEMOGLOBIN / LEUKOCYTE COUNT / LYMPHOCYTE / MEAN CORPUSCULAR HEMOGLOBIN / MEAN CORPUSCULAR HEMOGLOBIN CONCENTRATION / MEAN CORPUSCULAR VOLUME / MONOCYTE / NEUTROPHIL / NUCLEATED RED BLOOD CELLS / PLATELET COUNT: tissue Blood; for ALANINE AMINOTRANSFERASE / ALBUMIN / ALKALINE PHOSPHATASE / ASPARTATE AMINOTRANSFERASE / BLOOD UREA NITROGEN / CARBON DIOXIDE / CHLORIDE / CHOLESTEROL / CREATINE PHOSPHOKINASE / CREATININE / GLUCOSE / LACTATE DEHYDROGENASE / LIPASE / PHOSPHORUS / POTASSIUM / SODIUM / TOTAL BILIRUBIN / TOTAL PROTEIN / URIC ACID: tissue Plasma
[1] = 0 mg/kg, 72 h, dose level Control, time 3 day
[2] = 0 mg/kg, 120 h, dose level Control, time 5 day
[3] = 35 mg/kg, 72 h, dose level Low, time 3 day
[4] = 35 mg/kg, 120 h, dose level Low, time 5 day

CC(=O)Oc1ccccc1C(=O)O [ASPIRIN]
ABSOLUTE BASOPHIL [1]: 0 CELLS/uL | ABSOLUTE EOSINOPHIL [1]: 0 CELLS/uL | ABSOLUTE LYMPHOCYTE [1]: 6275.67 CELLS/uL | ABSOLUTE MONOCYTE [1]: 40.67 CELLS/uL | ABSOLUTE SEGMENTED NEUTROPHIL [1]: 633.67 CELLS/uL | BASOPHIL [1]: 0% | EOSINOPHIL [1]: 0% | ERYTHROCYTE COUNT [1]: 5.2 x10E6/uL | HEMATOCRIT [1]: 32.78% | HEMOGLOBIN [1]: 12.98 G/DL | LEUKOCYTE COUNT [1]: 6.95 x10E3/uL | LYMPHOCYTE [1]: 90.17% | MEAN CORPUSCULAR HEMOGLOBIN [1]: 24.97 pg | MEAN CORPUSCULAR HEMOGLOBIN CONCENTRATION [1]: 39.62 G/DL | MEAN CORPUSCULAR VOLUME [1]: 63.03 fL | MONOCYTE [1]: 0.67% | NEUTROPHIL [1]: 9.17% | NUCLEATED RED BLOOD CELLS [1]: 0 /100WBC | PLATELET COUNT [1]: 1082.83 x10E3/uL | ALANINE AMINOTRANSFERASE [1]: 69.67 u/L | ALBUMIN [1]: 4.15 G/DL | ALKALINE PHOSPHATASE [1]: 430.5 u/L | ASPARTATE AMINOTRANSFERASE [1]: 90.83 u/L | BLOOD UREA NITROGEN [1]: 13 mg/dL | CARBON DIOXIDE [1]: 33 mmol/L | CHLORIDE [1]: 99.17 MEQ/L | CHOLESTEROL [1]: 70.5 mg/dL | CREATINE PHOSPHOKINASE [1]: 253.33 u/L | CREATININE [1]: 0.13 mg/dL | GLUCOSE [1]: 157.17 mg/dL | LACTATE DEHYDROGENASE [1]: 85 u/L | LIPASE [1]: 10 u/L | PHOSPHORUS [1]: 10.2 mg/dL | POTASSIUM [1]: 5.78 MEQ/L | SODIUM [1]: 144.12 MEQ/L | TOTAL BILIRUBIN [1]: 0.2 mg/dL | TOTAL PROTEIN [1]: 5.8 G/DL | URIC ACID [1]: 0.8 mg/dL | ABSOLUTE BASOPHIL [2]: 0 CELLS/uL | ABSOLUTE EOSINOPHIL [2]: 0 CELLS/uL | ABSOLUTE LYMPHOCYTE [2]: 10431 CELLS/uL | ABSOLUTE MONOCYTE [2]: 90.5 CELLS/uL | ABSOLUTE SEGMENTED NEUTROPHIL [2]: 1111.83 CELLS/uL | BASOPHIL [2]: 0% | EOSINOPHIL [2]: 0% | ERYTHROCYTE COUNT [2]: 5.51 x10E6/uL | HEMATOCRIT [2]: 34.67% | HEMOGLOBIN [2]: 13.5 G/DL | LEUKOCYTE COUNT [2]: 11.63 x10E3/uL | LYMPHOCYTE [2]: 89.67% | MEAN CORPUSCULAR HEMOGLOBIN [2]: 24.5 pg | MEAN CORPUSCULAR HEMOGLOBIN CONCENTRATION [2]: 38.95 G/DL | MEAN CORPUSCULAR VOLUME [2]: 62.87 fL | MONOCYTE [2]: 0.67% | NEUTROPHIL [2]: 9.67% | NUCLEATED RED BLOOD CELLS [2]: 0 /100WBC | PLATELET COUNT [2]: 1052.67 x10E3/uL | ALANINE AMINOTRANSFERASE [2]: 54.67 u/L | ALBUMIN [2]: 4.15 G/DL | ALKALINE PHOSPHATASE [2]: 359.83 u/L | ASPARTATE AMINOTRANSFERASE [2]: 83 u/L | BLOOD UREA NITROGEN [2]: 13.5 mg/dL | CARBON DIOXIDE [2]: 27.17 mmol/L | CHLORIDE [2]: 98.5 MEQ/L | CHOLESTEROL [2]: 66.83 mg/dL | CREATINE PHOSPHOKINASE [2]: 256.17 u/L | CREATININE [2]: 0.19 mg/dL | GLUCOSE [2]: 171.33 mg/dL | LACTATE DEHYDROGENASE [2]: 91.5 u/L | LIPASE [2]: 10.5 u/L | PHOSPHORUS [2]: 8.72 mg/dL | POTASSIUM [2]: 5.34 MEQ/L | SODIUM [2]: 142.53 MEQ/L | TOTAL BILIRUBIN [2]: 0.2 mg/dL | TOTAL PROTEIN [2]: 6.05 G/DL | URIC ACID [2]: 0.6 mg/dL | ABSOLUTE BASOPHIL [3]: 0 CELLS/uL | ABSOLUTE EOSINOPHIL [3]: 58.67 CELLS/uL | ABSOLUTE LYMPHOCYTE [3]: 9448 CELLS/uL | ABSOLUTE MONOCYTE [3]: 29.33 CELLS/uL | ABSOLUTE SEGMENTED NEUTROPHIL [3]: 530.67 CELLS/uL | BASOPHIL [3]: 0% | EOSINOPHIL [3]: 0.67% | ERYTHROCYTE COUNT [3]: 4.69 x10E6/uL | HEMATOCRIT [3]: 30.17% | HEMOGLOBIN [3]: 12.1 G/DL | LEUKOCYTE COUNT [3]: 10.07 x10E3/uL | LYMPHOCYTE [3]: 93.33% | MEAN CORPUSCULAR HEMOGLOBIN [3]: 25.83 pg | MEAN CORPUSCULAR HEMOGLOBIN CONCENTRATION [3]: 40.1 G/DL | MEAN CORPUSCULAR VOLUME [3]: 64.4 fL | MONOCYTE [3]: 0.33% | NEUTROPHIL [3]: 5.67% | NUCLEATED RED BLOOD CELLS [3]: 0 /100WBC | PLATELET COUNT [3]: 951 x10E3/uL | ALANINE AMINOTRANSFERASE [3]: 86 u/L | ALBUMIN [3]: 4.17 G/DL | ALKALINE PHOSPHATASE [3]: 369 u/L | ASPARTATE AMINOTRANSFERASE [3]: 104.67 u/L | BLOOD UREA NITROGEN [3]: 13.5 mg/dL | CARBON DIOXIDE [3]: 32 mmol/L | CHLORIDE [3]: 101.33 MEQ/L | CHOLESTEROL [3]: 79.33 mg/dL | CREATINE PHOSPHOKINASE [3]: 304 u/L | CREATININE [3]: 0.15 mg/dL | GLUCOSE [3]: 156 mg/dL | LACTATE DEHYDROGENASE [3]: 85.33 u/L | LIPASE [3]: 23.33 u/L | PHOSPHORUS [3]: 9.53 mg/dL | POTASSIUM [3]: 5.79 MEQ/L | SODIUM [3]: 145.73 MEQ/L | TOTAL BILIRUBIN [3]: 0.2 mg/dL | TOTAL PROTEIN [3]: 5.7 G/DL | URIC ACID [3]: 0.53 mg/dL | ABSOLUTE BASOPHIL [4]: 0 CELLS/uL | ABSOLUTE EOSINOPHIL [4]: 0 CELLS/uL | ABSOLUTE LYMPHOCYTE [4]: 9532 CELLS/uL | ABSOLUTE MONOCYTE [4]: 142 CELLS/uL | ABSOLUTE SEGMENTED NEUTROPHIL [4]: 926 CELLS/uL | BASOPHIL [4]: 0% | EOSINOPHIL [4]: 0% | ERYTHROCYTE COUNT [4]: 5.39 x10E6/uL | HEMATOCRIT [4]: 34.33% | HEMOGLOBIN [4]: 13.4 G/DL | LEUKOCYTE COUNT [4]: 10.6 x10E3/uL | LYMPHOCYTE [4]: 90% | MEAN CORPUSCULAR HEMOGLOBIN [4]: 24.83 pg | MEAN CORPUSCULAR HEMOGLOBIN CONCENTRATION [4]: 39.03 G/DL | MEAN CORPUSCULAR VOLUME [4]: 63.63 fL | MONOCYTE [4]: 1.33% | NEUTROPHIL [4]: 8.67% | NUCLEATED RED BLOOD CELLS [4]: 0 /100WBC | PLATELET COUNT [4]: 1012.67 x10E3/uL | ALANINE AMINOTRANSFERASE [4]: 59 u/L | ALBUMIN [4]: 4.1 G/DL | ALKALINE PHOSPHATASE [4]: 356.67 u/L | ASPARTATE AMINOTRANSFERASE [4]: 89.33 u/L | BLOOD UREA NITROGEN [4]: 11.33 mg/dL | CARBON DIOXIDE [4]: 27.67 mmol/L | CHLORIDE [4]: 98.67 MEQ/L | CHOLESTEROL [4]: 69 mg/dL | CREATINE PHOSPHOKINASE [4]: 329.67 u/L | CREATININE [4]: 0.17 mg/dL | GLUCOSE [4]: 164.33 mg/dL | LACTATE DEHYDROGENASE [4]: 89 u/L | LIPASE [4]: 11.67 u/L | PHOSPHORUS [4]: 9.13 mg/dL | POTASSIUM [4]: 5.65 MEQ/L | SODIUM [4]: 145.03 MEQ/L | TOTAL BILIRUBIN [4]: 0.2 mg/dL | TOTAL PROTEIN [4]: 6.13 G/DL | URIC ACID [4]: 0.57 mg/dL
